In US20230059463A1, “3-(2-BROMO-4-ALKYNYL-6-ALKOXYPHENYL)-SUBSTITUTED 5-SPIROCYCLOHEXYL-3-PYRROLIN-2-ONES AND THEIR USE AS HERBICIDES” (Bayer Aktiengesellschaft, priority 2019, published 2023):

Experiments:
Assay type in all cases: in vivo
Echinochloa crus-galli [1] = experiment: Pre-emergence herbicidal effect; details: 80 g/ha, scored visually after 3 weeks, 100% = plants have died, 0% = like control plants
Source text: (§1) Seeds of monocotyledonous and dicotyledonous weed plants and crop plants are laid out in sandy loam soil in wood-fiber pots and covered with soil. The compounds of the invention, formulated in the form of wettable powders (WP) or as emulsion concentrates (EC), are then applied to the surface of the covering soil as aqueous suspension or emulsion at a water application rate equating to 600 to 800 L/ha with addition of 0.2% wetting agent.
(§2) After the treatment, the pots are placed in a greenhouse and kept under good growth conditions for the trial plants. The damage to the test plants is scored visually after a test period of 3 weeks by comparison with untreated controls (herbicidal activity in percent (%): 100% activity=the plants have died, 0% activity=like control plants).

Alopecurus myosuroides [2] = experiment: Pre-emergence herbicidal effect; details: 80 g/ha, scored visually after 3 weeks, 100% = plants have died, 0% = like control plants
Source text: as §1, §2

Lolium rigidum [3] = experiment: Pre-emergence herbicidal effect; details: 80 g/ha, scored visually after 3 weeks, 100% = plants have died, 0% = like control plants
Source text: as §1, §2

Hordeum murinum [4] = experiment: Pre-emergence herbicidal effect; details: 80 g/ha, scored visually after 3 weeks, 100% = plants have died, 0% = like control plants
Source text: as §1, §2

Avena fatua = experiment: Pre-emergence herbicidal effect; details: 80 g/ha, scored visually after 3 weeks, 100% = plants have died, 0% = like control plants
Source text: as §1, §2

Setaria viridis [5] = experiment: Pre-emergence herbicidal effect; details: 80 g/ha, scored visually after 3 weeks, 100% = plants have died, 0% = like control plants
Source text: as §1, §2

Echinochloa crus-galli [6] = experiment: Post-emergence herbicidal effect; details: 80 g/ha, post-emergence at one-leaf stage, assessed visually after about 3 weeks; 100% = plants have died, 0% = like control plants
Method: (§3) Seeds of monocotyledonous and dicotyledonous weed and crop plants are laid out in sandy loam soil in wood-fiber pots, covered with soil and cultivated in a greenhouse under good growth conditions. 2 to 3 weeks after sowing, the test plants are treated at the one-leaf stage. The compounds of the invention, formulated in the form of wettable powders (WP) or as emulsion concentrates (EC), are then sprayed onto the green parts of the plants as aqueous suspension or emulsion at a water application rate equating to 600 to 800 l/ha with addition of 0.2% wetting agent. After the test plants have been left to stand in the greenhouse under optimal growth conditions for about 3 weeks, the action of the preparations is assessed visually in comparison to untreated controls (herbicidal action in per cent (%): 100% activity=the plants have died, 0% activity=like control plants).

Alopecurus myosuroides [7] = experiment: Post-emergence herbicidal effect; details: 80 g/ha, post-emergence at one-leaf stage, assessed visually after about 3 weeks; 100% = plants have died, 0% = like control plants
Method: as §3

Lolium rigidum [8] = experiment: Post-emergence herbicidal effect; details: 80 g/ha, post-emergence at one-leaf stage, assessed visually after about 3 weeks; 100% = plants have died, 0% = like control plants
Method: as §3

Hordeum murinum [9] = experiment: Post-emergence herbicidal effect; details: 80 g/ha, post-emergence at one-leaf stage, assessed visually after about 3 weeks; 100% = plants have died, 0% = like control plants
Method: as §3

Digitaria sanguinalis = experiment: Post-emergence herbicidal effect; details: 80 g/ha, post-emergence at one-leaf stage, assessed visually after about 3 weeks; 100% = plants have died, 0% = like control plants
Method: as §3

Setaria viridis [10] = experiment: Post-emergence herbicidal effect; details: 80 g/ha, post-emergence at one-leaf stage, assessed visually after about 3 weeks; 100% = plants have died, 0% = like control plants
Method: as §3

SMILES | Pre-emergence action against ECHCG (herbicidal activity in percent) (Echinochloa crus-galli [1]) [%] | Pre-emergence action against ALOMY (herbicidal activity in percent) (Alopecurus myosuroides [2]) [%] | Pre-emergence action against LOLRI (herbicidal activity in percent) (Lolium rigidum [3]) [%] | Pre-emergence action against HORMU (herbicidal activity in percent) (Hordeum murinum [4]) [%] | Pre-emergence action against AVEFA (herbicidal activity in percent) (Avena fatua) [%] | Pre-emergence action against SETVI (herbicidal activity in percent) (Setaria viridis [5]) [%] | Post-emergence action against ECHCG (herbicidal action in per cent) (Echinochloa crus-galli [6]) [%] | Post-emergence action against ALOMY (herbicidal action in per cent) (Alopecurus myosuroides [7]) [%] | Post-emergence action against LOLRI (herbicidal action in per cent) (Lolium rigidum [8]) [%] | Post-emergence action against HORMU (herbicidal action in per cent) (Hordeum murinum [9]) [%] | Post-emergence action against DIGSA (herbicidal action in per cent) (Digitaria sanguinalis) [%] | Post-emergence action against SETVI (herbicidal action in per cent) (Setaria viridis [10]) [%]
C#Cc1cc(Br)c(C2=C(O)C3(CCCC(OCCC)C3)NC2=O)c(OC)c1 (centres unmarked) [Example 1.1.01] | 100 | 90 | 100 | 90 | 100 | 100 | 100 | 90 | 90 | 80 | 90 | 100
C#Cc1cc(Br)c(C2=C([O-])C3(CCCC(OCCC)C3)NC2=O)c(OC)c1.[Na+] (centres unmarked) [Example 1.1.02] | 100 | 100 | 100 | 100 | 100 | 100 | 100 | 100 | 100 | 100 | 100 | 100
C#Cc1cc(Br)c(C2=C([O-])C3(CCCC(OCCOC)C3)NC2=O)c(OC)c1.[Na+] (centres unmarked) [Example 1.1.06] | 100 | 100 | 100 | 100 | 100 | 100 | 100 | 100 | 100 | 90 | 100 | 90
CC#Cc1cc(Br)c(C2=C(O)C3(CCCC(OCCOC)C3)NC2=O)c(OC)c1 (centres unmarked) [Example 1.1.13] | 100 | 100 | 100 | 100 | 100 | 100 | 100 | 100 | 100 | 100 | – | 100
CC#Cc1cc(Br)c(C2=C([O-])C3(CCCC(OCCOC)C3)NC2=O)c(OC)c1.[Na+] (centres unmarked) [Example 1.1.14] | 100 | 100 | 100 | 100 | 100 | 100 | 90 | 80 | 90 | 80 | – | 90
CC#Cc1cc(Br)c(C2=C(OC(=O)OCC)C3(CCCC(OCCOC)C3)NC2=O)c(OC)c1 (centres unmarked) [Example 1.1.15] | 100 | 100 | 100 | 100 | 100 | 100 | 100 | 100 | 100 | 100 | – | 100
CC#Cc1cc(Br)c(C2=C(OC(=O)C(C)C)C3(CCCC(OCCOC)C3)NC2=O)c(OC)c1 (centres unmarked) [Example 1.1.16] | 100 | 100 | 100 | 100 | 100 | 100 | 100 | 100 | 100 | 100 | – | 100
CC#Cc1cc(Br)c(C2=C(O)C3(CCCC(OCCOC)C3)NC2=O)c(OCC)c1 (centres unmarked) [Example 1.1.17] | – | – | – | – | – | – | 100 | 100 | 100 | 100 | 100 | 100
CC#Cc1cc(Br)c(C2=C([O-])C3(CCCC(OCCOC)C3)NC2=O)c(OCC)c1.[Na+] (centres unmarked) [Example 1.1.18] | – | – | – | – | – | – | 100 | 100 | 100 | 100 | 100 | 100
CC#Cc1cc(Br)c(C2=C(OC(=O)OCC)C3(CCCC(OCCOC)C3)NC2=O)c(OCC)c1 (centres unmarked) [Example 1.1.19] | – | – | – | – | – | – | 100 | 100 | 100 | 100 | 100 | 100
